Measurements from patent publication US12458651B2, “Compounds and their uses for alleviating menopause-associated symptoms” (ESTETRA SRL, priority 2018, dated 2025).
Read-outs that look alike come from different tables or passages of the source.

Key:
[1] = test system: C-terminal telopeptide (CTX-1); assay: C-terminal telopeptide (CTX-1), marker of bone resorption; type: in vivo; settings: E4 20 mg daily
post-menopausal women [2] = assay: GSM symptom: dysuria; type: in vivo
Procedure: (§1) Change from baseline to week 12 in the following GSM symptoms (VVA subject self-assessment) were recorded: • a) Vaginal dryness (sensation of dryness or burning in the vagina; none=0 mild=1, moderate=2 or severe=3):
• c) Dysuria (sensation of pain or difficulty in urinating; none=0, mild=1, moderate=2 or severe=3): […]

postmenopausal women [3] = settings: cited from earlier work
post-menopausal women [4] = assay: Adverse events (AEs, TEAEs) in the dose-finding study; type: in vivo
Source text: This is confirmed by the following statistical analysis. Using a Poisson regression model with a random effect for the patient and treatment group as a covariate to model the count of TEAEs in the different treatment groups, it can be shown that there is no statistical difference between the treatment groups (p value of 0.099). Second, a chi-square test was used to assess if the prevalence of patients reporting TEAEs in each treatment group was similar. No statistical difference was found between the treatment groups (p value of 0.575).

post-menopausal women [5] = assay: GSM symptom (VVA self-assessment): vaginal dryness; type: in vivo
Procedure: Change from baseline to week 12 in the following GSM symptoms (VVA subject self-assessment) were recorded: • a) Vaginal dryness (sensation of dryness or burning in the vagina; none=0 mild=1, moderate=2 or severe=3): […]

[6] = Triglycerides level at 15 mg and 20 mg daily doses; type: in vivo; settings: 20 mg daily dose in place of 15 mg daily dose
Procedure: In order to better assess the potential for increasing the daily dose beyond the minimum effective dose of 15 mg daily, a number of parameters were followed in a study where estetrol was administered at the increased dose of 20 mg per day.
1. Triglycerides Level (mmol/L)

postmenopausal women [7] = settings: 2 mg estetrol per day for 28 days; cited from earlier work
post-menopausal women [8] = assay: GSM symptom: vaginal and/or vulvar irritation/itching; type: in vivo
Procedure: as §1
• b) Vaginal and/or vulvar irritation/itching (sensation of abnormal irritation or sensitive condition in the vagina; none=0, mild=1, moderate=2 or severe=3): […]

C[C@]12CC[C@@H]3c4ccc(O)cc4CC[C@H]3[C@@H]1[C@@H](O)[C@@H](O)[C@@H]2O [Estetrol, 1,3,5 (10)-estratrien-3,15alpha,16alpha,17beta-tetrol]
C-Terminal Telopeptide (CTX-1), Baseline, Mean [1]: 422.50 ng/L
C-Terminal Telopeptide (CTX-1), Baseline, Median [1]: 416.5 ng/L
C-Terminal Telopeptide (CTX-1), End Of Treatment Actual Change from Baseline, Mean ([1]; after 28 days): -147.60 ng/L
C-Terminal Telopeptide (CTX-1), End Of Treatment Actual Change from Baseline, Median ([1]; after 28 days): -138.0 ng/L
C-Terminal Telopeptide (CTX-1), End Of Treatment Actual Value, Mean ([1]; after 28 days): 274.9 ng/L
C-Terminal Telopeptide (CTX-1), End Of Treatment Actual Value, Median ([1]; after 28 days): 267.50 ng/L
Dysuria score (none=0 to severe=3), mean ± SD (post-menopausal women [2]; E4 2.5 mg, Baseline): 0.2 ± 0.56
Dysuria score (none=0 to severe=3), mean ± SD (post-menopausal women [2]; E4 2.5 mg, Week 12): 0 ± 0.19
Dysuria score (none=0 to severe=3), mean ± SD (post-menopausal women [2]; E4 5 mg, Baseline): 0.2 ± 0.56
Dysuria score (none=0 to severe=3), mean ± SD (post-menopausal women [2]; E4 5 mg, Week 12): 0 ± 0.20
Dysuria score (none=0 to severe=3), mean ± SD (post-menopausal women [2]; E4 10 mg, Baseline): 0.2 ± 0.58
Dysuria score (none=0 to severe=3), mean ± SD (post-menopausal women [2]; E4 10 mg, Week 12): 0.1 ± 0.23
Dysuria score (none=0 to severe=3), mean ± SD (post-menopausal women [2]; E4 15 mg, Baseline): 0.3 ± 0.58
Dysuria score (none=0 to severe=3), mean ± SD (post-menopausal women [2]; E4 15 mg, Week 12): 0.3 ± 0.61
Endometrial thickness (postmenopausal women [3]; 2 mg estetrol per day): stable
Endometrial thickness (postmenopausal women [3]; 10 mg estetrol per day): increasing
Percentage of patients with TEAE leading to Study Discontinuation (post-menopausal women [4]; 2.5 mg group): 1.9%
Percentage of patients with severe TEAE (post-menopausal women [4]; 2.5 mg group): 7.7%
Percentage of patients with TEAE leading to Study Discontinuation (post-menopausal women [4]; 5 mg group): 6.4%
Percentage of patients with severe TEAE (post-menopausal women [4]; 5 mg group): 10.6%
Average AEs per patient (patients who had AEs) (post-menopausal women [4]; 10 mg group): 3.2
Percentage of patients with TEAE leading to Study Discontinuation (post-menopausal women [4]; 10 mg group): 5.6%
Percentage of patients with severe TEAE (post-menopausal women [4]; 10 mg group): 7.4%
Average AEs per patient (patients who had AEs) (post-menopausal women [4]; 15 mg group): 2.6
Percentage of patients with TEAE leading to Study Discontinuation (post-menopausal women [4]; 15 mg group): 4.1%
Percentage of patients with severe TEAE (post-menopausal women [4]; 15 mg group): 6.1%
Vaginal dryness score (none=0 to severe=3), mean ± SD (post-menopausal women [5]; E4 2.5 mg, Baseline): 1 ± 0.90
Vaginal dryness score (none=0 to severe=3), mean ± SD (post-menopausal women [5]; E4 2.5 mg, Week 12): 0.5 ± 0.77
Vaginal dryness score (none=0 to severe=3), mean ± SD (post-menopausal women [5]; E4 5 mg, Baseline): 1.3 ± 0.94
Vaginal dryness score (none=0 to severe=3), mean ± SD (post-menopausal women [5]; E4 5 mg, Week 12): 0.7 ± 0.86
Vaginal dryness score (none=0 to severe=3), mean ± SD (post-menopausal women [5]; E4 10 mg, Baseline): 1 ± 0.93
Vaginal dryness score (none=0 to severe=3), mean ± SD (post-menopausal women [5]; E4 10 mg, Week 12): 0.5 ± 0.75
Vaginal dryness score (none=0 to severe=3), mean ± SD (post-menopausal women [5]; E4 15 mg, Baseline): 1.1 ± 1.04
Vaginal dryness score (none=0 to severe=3), mean ± SD (post-menopausal women [5]; E4 15 mg, Week 12): 0.5 ± 0.68
Lipid parameters (triglycerides, cholesterol, HDL, LDL) and glucose level [6]: do not behave significantly differently
Mean number of hot flushes and sweating (postmenopausal women [7]): decrease
Vaginal and/or vulvar irritation/itching score (none=0 to severe=3), mean ± SD (post-menopausal women [8]; E4 2.5 mg, Baseline): 0.7 ± 0.96
Vaginal and/or vulvar irritation/itching score (none=0 to severe=3), mean ± SD (post-menopausal women [8]; E4 2.5 mg, Week 12): 0.3 ± 0.60
Vaginal and/or vulvar irritation/itching score (none=0 to severe=3), mean ± SD (post-menopausal women [8]; E4 5 mg, Baseline): 0.6 ± 0.90
Vaginal and/or vulvar irritation/itching score (none=0 to severe=3), mean ± SD (post-menopausal women [8]; E4 5 mg, Week 12): 0.4 ± 0.65
Vaginal and/or vulvar irritation/itching score (none=0 to severe=3), mean ± SD (post-menopausal women [8]; E4 10 mg, Baseline): 0.7 ± 0.87
Vaginal and/or vulvar irritation/itching score (none=0 to severe=3), mean ± SD (post-menopausal women [8]; E4 10 mg, Week 12): 0.3 ± 0.64
Vaginal and/or vulvar irritation/itching score (none=0 to severe=3), mean ± SD (post-menopausal women [8]; E4 15 mg, Baseline): 0.5 ± 0.85
Vaginal and/or vulvar irritation/itching score (none=0 to severe=3), mean ± SD (post-menopausal women [8]; E4 15 mg, Week 12): 0.4 ± 0.70
